Test results from PubChem BioAssay AID2060909 (Molecular Pharmacology Branch, DTP, NCI, 2025).

Tested on: 362531-283-R-J2-PDC complex spheroid viability
Experiment: Anticancer human tumor 362531-283-R-J2-PDC patient-derived colon adenocarcinoma cell line growth inhibition [RAS]
Details: for IC50: curve of first compound; for viability, T/C: stronger effect = lower value
Summary of the method: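 Multi-cell-type spheroids: tumor cells plus HUVEC endothelial cells and mesenchymal stem cells. RAS-pathway inhibitors were combined with targeted agents, each dosed in half-log steps down from clinical Cmax, or from 10 microM when Cmax was unknown.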
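Note: spheroids exposed to the agents for 7 days before readout.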
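Throughout, for viability, T/C: luminescence viability as percent of DMSO vehicle control wells.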

CCc1c2c(nc3ccc(O)cc13)-c1cc3c(c(=O)n1C2)COC(=O)[C@]3(O)CC + CCn1c(-c2cccnc2C(C)OC)c2c3cc(ccc31)N1CCOC(CC(NC(=O)C(C(C)C)N(C)C(=O)C3(F)CCN(C(=O)C#CC(C)(C)N(C)C)CC3)C(=O)N3CCCC(N3)C(=O)OCC(C)(C)C2)C1
IC50 (second compound 0.000949 µM): 58.1 nM | IC50 (second compound 0.003 µM): 32.9 nM | IC50 (second compound 0.00949 µM): 51.3 nM | IC50 (second compound 0.03 µM): 60.5 nM | IC50 (second compound 0.0949 µM): 56.1 nM | IC50 (second compound 0.3 µM): 44.2 nM | viability, T/C (second compound 0.000949 µM, first compound 0.000949 µM): 96.5% | viability, T/C (second compound 0.000949 µM, first compound 0.003 µM): 91.6% | viability, T/C (second compound 0.000949 µM, first compound 0.00949 µM): 83% | viability, T/C (second compound 0.000949 µM, first compound 0.03 µM): 73.6% | viability, T/C (second compound 0.000949 µM, first compound 0.0949 µM): 32.9% | viability, T/C (second compound 0.000949 µM, first compound 0.3 µM): 18% | viability, T/C (second compound 0.003 µM, first compound 0.000949 µM): 112% | viability, T/C (second compound 0.003 µM, first compound 0.003 µM): 91.6% | viability, T/C (second compound 0.003 µM, first compound 0.00949 µM): 82.5% | viability, T/C (second compound 0.003 µM, first compound 0.03 µM): 45.9% | viability, T/C (second compound 0.003 µM, first compound 0.0949 µM): 34% | viability, T/C (second compound 0.003 µM, first compound 0.3 µM): 16.7% | viability, T/C (second compound 0.00949 µM, first compound 0.000949 µM): 101% | viability, T/C (second compound 0.00949 µM, first compound 0.003 µM): 99.2% | viability, T/C (second compound 0.00949 µM, first compound 0.00949 µM): 76.1% | viability, T/C (second compound 0.00949 µM, first compound 0.03 µM): 65% | viability, T/C (second compound 0.00949 µM, first compound 0.0949 µM): 35.5% | viability, T/C (second compound 0.00949 µM, first compound 0.3 µM): 17.8% | viability, T/C (second compound 0.03 µM, first compound 0.000949 µM): 103% | viability, T/C (second compound 0.03 µM, first compound 0.003 µM): 90.8% | viability, T/C (second compound 0.03 µM, first compound 0.00949 µM): 89% | viability, T/C (second compound 0.03 µM, first compound 0.03 µM): 71.8% | viability, T/C (second compound 0.03 µM, first compound 0.0949 µM): 35.8% | viability, T/C (second compound 0.03 µM, first compound 0.3 µM): 15.7% | viability, T/C (second compound 0.0949 µM, first compound 0.000949 µM): 95.1% | viability, T/C (second compound 0.0949 µM, first compound 0.003 µM): 93.1% | viability, T/C (second compound 0.0949 µM, first compound 0.00949 µM): 84.8% | viability, T/C (second compound 0.0949 µM, first compound 0.03 µM): 60.1% | viability, T/C (second compound 0.0949 µM, first compound 0.0949 µM): 40.9% | viability, T/C (second compound 0.0949 µM, first compound 0.3 µM): 16.4% | viability, T/C (second compound 0.3 µM, first compound 0.000949 µM): 90.3% | viability, T/C (second compound 0.3 µM, first compound 0.003 µM): 108% | viability, T/C (second compound 0.3 µM, first compound 0.00949 µM): 90.3% | viability, T/C (second compound 0.3 µM, first compound 0.03 µM): 57.6% | viability, T/C (second compound 0.3 µM, first compound 0.0949 µM): 32.5% | viability, T/C (second compound 0.3 µM, first compound 0.3 µM): 13.3%
